According to patent publication US20100016358A1, “GAMMA-GLOBIN INDUCER” (KOWA CO., LTD., priority 2006, published 2010):
Where a name gives a salt, the structure may show the parent alone.

Assays:
Type in all cases: cell-based, human
[1] = test system: γ-globin mRNA in K562 cells; experiment: γ-globin mRNA level in K562 cells by real-time PCR (TaqMan); settings: 0.3-μM-added group, cultured three days
Description: K562 cells (1×10^5 cells/mL) were seeded into each well of 6-well plate (4 mL/well). A solution of compound 1 (×1000) was added to the plate (4 μL/well), and cells were cultured in a CO2 incubator (37° C., 5% CO2) for three days. The cultured cells were collected, and RNA was prepared from the cells by means of a RNeasy mini column (product of Qiagen). Subsequently, cDNA was synthesized from the thus-obtained RNA by use of reverse transcriptase. Through real-time PCR employing a TaqMan probe according to a protocol of Applied Bio-Systems, γ-globin mRNA level was determined (ABI PRISM7900HT System, product of Applied Bio-Systems). In Example 2, the following primers and probe were employed (SEQ ID NOs: 1 to 3): […]
forward primer (GGTTCTTTGACAGCTTTG, SEQ ID NO: 1);
reverse primer (CCTTCTTGCCATGTGCCTT, SEQ ID NO: 2); and
fluorescence probe (CCTCTGCCTCTGCCATC, SEQ ID NO: 3).
These primers and probe are custom synthesis products of Qiagen.

[2] = test system: K562 cells; experiment: HbF-producing cells (F cells) in K562 cell population by flow cytometry with FITC-labeled anti-HbF antibody; settings: 0.1-μM compound, cultured three days
Description: K562 cells (1×10^5 cells/mL) were seeded into each well of 24-well plate (2 mL/well). A solution of compound 1 (×1000) was added to the plate (2 μL/well), and cells were cultured in a CO2 incubator (37° C., 5% CO2) for three days. The cultured cells were collected through centrifugation and treated for 10 minutes with phosphate buffered saline (PBS) containing 0.05% glutaraldehyde/0.1% bovine serum albumin (BSA). The liquid was removed from the mixture through centrifugation, to thereby obtain pellets. Subsequently, 0.1% BSA/PBS was added to the separated pellets, and the same treatment was performed three times, to thereby wash the cells. The thus-washed cells were subjected, for five minutes, to permeation treatment with 0.1% BSA/PBS containing 1% Triton X-100 (0.5 mL) and washed once again. The resultant cells were suspended in 0.1% BSA/PBS (80 μL). FITC-labeled anti-HbF antibody (10 μg/mL, product of Caltag) (5 μL) was added to the suspension, and the mixture was allowed to react at room temperature in the dark for 15 minutes, whereby HbF present in the cells was immunostained. In a similar manner as described above, the stained cells were washed and suspended in 0.1% BSA/PBS containing 1% formaldehyde (0.5 mL). The suspension was analyzed through a method known in the art, by means of a flow cytometer (EPICS XL, product of Beckman Coulter, Inc.).

[3] = test system: K562 cells; experiment: Measurement of the amount of hemoglobin produced by K562 cells (porphyrin fluorescence); settings: for hemoglobin production promoting action: FIG. 1
Description: Compound 1 was synthesized through a method disclosed in International publication WO 03/02703 (Example 13) and dissolved in dimethyl sulfoxide (DMSO). The concentration of the solution was adjusted as appropriate through dilution. An equiamount of DMSO was employed as a control solution.
Cells of human proerythroblast cell line K562 (obtained from ATCC) were added to a complete culture medium (RPMI-1640 medium containing 10% fetal bovine serum), and the resultant cells (1×10^5 cells/mL) were seeded into each well of 24-well plate (2 mL/well). A solution of compound 1 (×1000) was added to the plate (2 μL/well), and cells were cultured in a CO2 incubator (37° C., 5% CO2) for three days. The medium was renewed, and cells were further cultured for three days.
The cultured cells were collected and counted. The number of cells in each sample was adjusted to 3×10^5, and the intensity of the fluorescence attributed to a porphyrin ring was measured, to thereby determine the hemoglobin level. Specifically, cells collected through centrifugation were suspended in 2M oxalic acid (500 μL), and the suspension was boiled for 30 minutes and cooled. Fluorescence intensity was measured by means of a fluorescence microplate reader (Spectra MAX Gemini EM, product of Molecular Device) ([…]).

Row | SMILES | amount of γ-globin mRNA produced (compound-non-added group = 1) [1] | number of HbF-expressing cells (F cells) [2] | amount of hemoglobin produced (compound-non-added group = 100%) ([3]; 0.3-μM-added group, cultured 3 + 3 days) [%] | hemoglobin production promoting action [3]
1 | COc1ccc(N(Cc2cncc(-c3cc(OC)c(OC)c(OC)c3)c2)C2CCN(Cc3ccnc(-c4cc(OC)c(OC)c(OC)c4)c3)CC2)cc1 [compound 1, 4-[N-(4-Methoxyphenyl)-N-[[5-(3,4,5-trimethoxyphenyl)pyridin-3-yl]methyl]amino]-1-[[2-(3,4,5-trimethoxyphenyl)pyridin-4-yl]methyl]piperidine] | about four fold | almost doubled | 435 | promotes production of hemoglobin in a concentration (dose)-dependent manner
2 | COc1cc(C(=O)OCCCN2CCCN(CCCOC(=O)c3cc(OC)c(OC)c(OC)c3)CC2)cc(OC)c1OC [dilazep hydrochloride, Dilazep hydrochloride, reference compound] | – | – | – | did not exhibit hemoglobin production promoting action
